Test results from US9522177B2, “Antimicrobial and immunostimulatory system comprising an oxidoreductase enzyme” (Institute of Technology Sligo, priority 2006, dated 2016).

Key:
[1] = system: clinical isolates of Mastitis causing Staphylococcus aureus; experiment: Inhibition assay (3 day repeats), mastitis isolates; format: cell-based; details: for sensitivity of clinical isolate number 15: Mastitis causing Staphylococcus aureus isolate number 15, FIG. 11b
Experimental: 22 isolates of Staphylococcus aureus from clinical mastitis obtained from Sligo regional Veterinary Laboratories are grown on nutrient agar or in nutrient broth for 24 hrs at 37° C.
Agar plates are inoculated by swabbing overnight culture onto the plate surface. Plates are allowed to stand at room temperature for 15 minutes before use. Wells 8.2 mm diameter are bored into the surface of the agar. One hundred and eighty μl of sample is placed into each well. The samples diffuse into the agar around the well and are assayed for an ability to produce a zone of inhibition. Plates are incubated for 24, 48 or 72 hrs and zones of inhibition are measured using an Autodata automatic zone reader. The diameter of zones, including the diameter of the well (8.2 mm), is recorded.

[2] = system: L929 cells; experiment: ISO 10993-5 agar overlay cytotoxicity (neutral red); details: positive control, 24 hrs
Experimental: ISO 10993, agar overlay tests for cytotoxicity: in vitro method is also used, employing L929 cells (mouse fibroblasts ECACC 85011425). In brief; a confluent monolayer of cells is incubated, this is then covered with a layer fresh medium (EMEM, 2 mM L-Glutamine, 5% FBS, 2% Penicillin-Streptomycin) containing 1.5 g/l of soft agar and allowed to solidify. One tenth of the surface is covered with test materials (previously described) and incubated for 24 hrs. Post incubation the test material is carefully removed and a vital stain (neutral red) in fresh media added. After incubation this is removed, the cells washed and then the dye extracted from the cells and quantified spectrophotometrically for cell viability.
Percent toxicity was calculated according to the formula: % Toxicity=1−(OD average of test material wells/average OD of corresponding control wells (sodium azide added))×100. Included in the assay are a 50% concentration of A^3IS, a range of concentrations of commercial silver containing gel and commercial zinc containing gel product, compared to sodium azide (positive control). […] For the agar overlay toxicity assay the amount of test materials used was similar to that used for the initial direct contact assays of 100 mg per well however the contact time was extended to 24 hrs.

| Molecule | sensitivity of clinical isolate number 15 [1] | other results |
| --- | --- | --- |
| [H]/N=C(/N)N[C@H]1[C@H](O)[C@@H](O)[C@H](O[C@@H]2O[C@@H](C)[C@](O)(C=O)[C@H]2O[C@@H]2O[C@@H](CO)[C@H](O)[C@@H](O)[C@@H]2NC)[C@@H](N/C(N)=N\[H])[C@@H]1O [Streptomycin] | resistant | – |
| [N-]=[N+]=[N-] [sodium azide] | – | % Toxicity [2]: 100% |
| O=C(N[C@H](CO)[C@H](O)c1ccc([N+](=O)[O-])cc1)C(Cl)Cl [Chloramphenicol] | only mild sensitivity | – |
| Nisin [2% Nisin] | – | resistant colonies in zone of inhibition assays ([1]; FIG. 11e): resistant colony within the zone of inhibition |
| CN[C@H](CC(C)C)C(=O)N[C@H]1C(=O)N[C@@H](CC(N)=O)C(=O)N[C@H]2C(=O)N[C@H]3C(=O)N[C@H](C(=O)N[C@H](C(=O)O)c4cc(O)cc(O)c4-c4cc3ccc4O)[C@H](O)c3ccc(c(Cl)c3)Oc3cc2cc(c3O[C@@H]2O[C@H](CO)[C@@H](O)[C@H](O)[C@H]2O[C@H]2C[C@](C)(N)[C@H](O)[C@H](C)O2)Oc2ccc(cc2Cl)[C@H]1O [Vancomycin] | resistant | – |
